Measurements as given in PubChem BioAssay AID220 (DTP/NCI, 2004).
Values joined by “and” are separate entries in the source; they are usually repeats but may differ in a detail not shown here. Equal values may be shown once. Inconclusive results are not listed.

Tested on: CD8F1 mice, subcutaneous mammary adenocarcinoma, T/C%
Experiment: NCI In Vivo Anticancer Drug Screen. Data for tumor model Mammary Adenocarcinoma CD8F1 (subcutaneous) in CD8F1
Settings: higher = larger tumour
In short: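 Transplantable tumors were established in mice, animals were dosed with compound or vehicle, and survival or tumor size was then measured in both groups. The treated result was divided by the control result.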

[1] = endpoint: median tumor weight change, dose: 6.25 mg/kg/injection, schedule: Q01DX001 (ip), vehicle: saline
[2] = endpoint: median tumor weight change, dose: 125.0 mg/kg/injection, schedule: Q01DX001 (ip), vehicle: Klucel (hydroxypropylcellulose) (HPC)
[3] = endpoint: median tumor weight change, dose: 250.0 mg/kg/injection, schedule: Q01DX001 (ip), vehicle: Klucel (hydroxypropylcellulose) (HPC)
[4] = endpoint: median tumor weight (est.), dose: 12.5 mg/kg/injection, schedule: Q07DX005 (ip), vehicle: saline
[5] = endpoint: median tumor weight (est.), dose: 25.0 mg/kg/injection, schedule: Q07DX005 (ip), vehicle: saline

O=NN(CCCl)C(=O)NC1[C@H](O)CCC[C@@H]1O (stereo partly drawn)
T/C [1]: 71 % of control and 73 % of control
T/C (endpoint: median tumor weight change, dose: 12.5 mg/kg/injection, schedule: Q01DX001 (ip), vehicle: saline): 15 % of control and 17 % of control
T/C (endpoint: median tumor weight change, dose: 25.0 mg/kg/injection, schedule: Q01DX001 (ip), vehicle: saline): 6 % of control

N#Cc1nc(C#N)c(Sc2ccccc2)c(Sc2ccccc2)c1Sc1ccccc1
T/C (endpoint: median tumor weight (est.), dose: 6.25 mg/kg/injection, schedule: Q07DX005 (ip), vehicle: saline with Tween-80): 165 % of control
T/C (endpoint: median tumor weight (est.), dose: 12.5 mg/kg/injection, schedule: Q07DX005 (ip), vehicle: saline with Tween-80): 113 % of control

COc1cc2c(c(OC)c1OC)-c1ccc(OC)c(=O)cc1[C@@H](NC(C)=O)CC2
T/C (endpoint: median tumor weight (est.), dose: 0.75 mg/kg/injection, schedule: Q07DX005 (ip), vehicle: saline): 82 % of control and 97 % of control
T/C (endpoint: median tumor weight (est.), dose: 1.5 mg/kg/injection, schedule: Q07DX005 (ip), vehicle: saline): 49 % of control
T/C (endpoint: median tumor weight change, dose: 3.0 mg/kg/injection, schedule: Q01DX001 (ip), vehicle: suspension in saline): 21 % of control
T/C [1]: -47 % of control

COc1ccc2ccccc2c1C1NC(=O)c2ccccc2N1 (stereo not drawn)
T/C [2]: 88 % of control
T/C [3]: 118 % of control
T/C (endpoint: median tumor weight change, dose: 500.0 mg/kg/injection, schedule: Q01DX001 (ip), vehicle: Klucel (hydroxypropylcellulose) (HPC)): 97 % of control
T/C (endpoint: median tumor weight change, dose: 1000.0 mg/kg/injection, schedule: Q01DX001 (ip), vehicle: Klucel (hydroxypropylcellulose) (HPC)): 60 % of control

Cc1cc(Nc2ccc3c(c2)OCO3)c2cc3c(cc2n1)OCO3
T/C [2]: 54 % of control

C/C=C\C(C)=C/C(C)C(=O)CC(O)CC1CC(=O)NC(=O)C1 (stereo not drawn)
T/C (endpoint: median tumor weight change, dose: 50.0 mg/kg/injection, schedule: Q01DX001 (ip), vehicle: saline with Tween-80): 66 % of control
T/C (endpoint: median tumor weight change, dose: 56.0 mg/kg/injection, schedule: Q01DX001 (ip), vehicle: DMSO): 58 % of control
T/C (endpoint: median tumor weight change, dose: 100.0 mg/kg/injection, schedule: Q01DX001 (ip), vehicle: saline with Tween-80): 66 % of control
T/C (endpoint: median tumor weight change, dose: 112.0 mg/kg/injection, schedule: Q01DX001 (ip), vehicle: DMSO): 60 % of control
T/C (endpoint: median tumor weight change, dose: 200.0 mg/kg/injection, schedule: Q01DX001 (ip), vehicle: saline with Tween-80): 73 % of control
T/C (endpoint: median tumor weight change, dose: 225.0 mg/kg/injection, schedule: Q01DX001 (ip), vehicle: DMSO): 77 % of control
T/C (endpoint: median tumor weight change, dose: 400.0 mg/kg/injection, schedule: Q01DX001 (ip), vehicle: saline with Tween-80): 98 % of control

O=C(C/C(=N\C(=S)Nc1cc(C(F)(F)F)ccc1Cl)NO)N1CCCC1
T/C (endpoint: median tumor weight change, dose: 62.5 mg/kg/injection, schedule: Q01DX001 (ip), vehicle: saline with Tween-80): 76 % of control
T/C (endpoint: median tumor weight change, dose: 125.0 mg/kg/injection, schedule: Q01DX001 (ip), vehicle: saline with Tween-80): 83 % of control and 90 % of control

[N-]=[N+]=C1N=CN=C1c1ncn[nH]1
T/C (endpoint: median tumor weight (est.), dose: 3.12 mg/kg/injection, schedule: Q07DX005 (ip), vehicle: carboxymethylcellulose (CMC)): 91 % of control
T/C (endpoint: median tumor weight (est.), dose: 6.25 mg/kg/injection, schedule: Q07DX005 (ip), vehicle: carboxymethylcellulose (CMC)): 95 % of control

CN(Cc1cnc2nc(N)nc(N)c2n1)c1ccc(C(=O)N[C@@H](CCC(=O)O)C(=O)O)cc1
T/C (endpoint: mean tumor weight (est.), dose: 20.0 mg/kg/injection, schedule: Q07DX006 (ip), vehicle: sodium bicarbonate): 192 % of control
T/C (endpoint: mean tumor weight (est.), dose: 75.0 mg/kg/injection, schedule: Q07DX004 (ip), vehicle: sodium bicarbonate): 91 % of control
T/C (endpoint: mean tumor weight (est.), dose: 100.0 mg/kg/injection, schedule: Q07DX004 (ip), vehicle: sodium bicarbonate): 90 % of control
T/C (endpoint: mean tumor weight, dose: 2.0 mg/kg/injection, schedule: Q01DX009 (ip), vehicle: saline): 84 % of control
T/C (endpoint: mean tumor weight, dose: 2.0 mg/kg/injection, schedule: Q01DX009 (ip), vehicle: sodium bicarbonate): 234 % of control
T/C (endpoint: mean tumor weight, dose: 4.0 mg/kg/injection, schedule: Q01DX009 (ip), vehicle: saline): 44 % of control
T/C (endpoint: mean tumor weight, dose: 4.0 mg/kg/injection, schedule: Q01DX009 (ip), vehicle: sodium bicarbonate): 84 % of control
T/C (endpoint: mean tumor weight, dose: 12.5 mg/kg/injection, schedule: Q07DX004 (ip), vehicle: saline): 87 % of control
T/C (endpoint: mean tumor weight, dose: 25.0 mg/kg/injection, schedule: Q07DX004 (ip), vehicle: saline): 23 % of control
T/C (endpoint: mean tumor weight, dose: 25.0 mg/kg/injection, schedule: Q07DX006 (ip), vehicle: saline): 44 % of control
T/C (endpoint: mean tumor weight, dose: 50.0 mg/kg/injection, schedule: Q07DX003 (ip), vehicle: sodium bicarbonate): 50 % of control
T/C (endpoint: mean tumor weight, dose: 50.0 mg/kg/injection, schedule: Q07DX004 (ip), vehicle: saline): 26 % of control
T/C (endpoint: mean tumor weight, dose: 50.0 mg/kg/injection, schedule: Q07DX006 (ip), vehicle: saline): 93 % of control
T/C (endpoint: mean tumor weight, dose: 100.0 mg/kg/injection, schedule: Q07DX003 (ip), vehicle: sodium bicarbonate): 43 % of control
T/C (endpoint: mean tumor weight, dose: 100.0 mg/kg/injection, schedule: Q07DX006 (ip), vehicle: saline): 56 % of control
T/C (endpoint: mean tumor weight, dose: 150.0 mg/kg/injection, schedule: Q07DX005 (ip), vehicle: sodium bicarbonate): 107 % of control
T/C (endpoint: mean tumor weight, dose: 200.0 mg/kg/injection, schedule: Q07DX005 (ip), vehicle: sodium bicarbonate): 70 % of control
T/C (endpoint: mean tumor weight, dose: 250.0 mg/kg/injection, schedule: Q07DX005 (ip), vehicle: sodium bicarbonate): 45 % of control
T/C (endpoint: median tumor weight (est.), dose: 2.5 mg/kg/injection, schedule: Q07DX005 (ip), vehicle: sodium bicarbonate): 63 % of control
T/C (endpoint: median tumor weight (est.), dose: 5.0 mg/kg/injection, schedule: Q07DX005 (ip), vehicle: sodium bicarbonate): 110 % of control and 111 % of control
T/C (endpoint: median tumor weight (est.), dose: 20.0 mg/kg/injection, schedule: Q07DX005 (ip), vehicle: sodium bicarbonate): 112 % of control
T/C (endpoint: median tumor weight (est.), dose: 40.0 mg/kg/injection, schedule: Q07DX005 (ip), vehicle: sodium bicarbonate): 85 % of control and 107 % of control
T/C (endpoint: median tumor weight (est.), dose: 80.0 mg/kg/injection, schedule: Q07DX005 (ip), vehicle: sodium bicarbonate): 20 % of control

COc1ccc(/C=C/C(=O)c2cc(C(=O)O)c(OC)cc2OC)cc1OC
T/C [4]: 326 % of control
T/C [5]: 117 % of control
T/C (endpoint: median tumor weight (est.), dose: 50.0 mg/kg/injection, schedule: Q07DX005 (ip), vehicle: saline): 192 % of control
T/C (endpoint: median tumor weight (est.), dose: 50.0 mg/kg/injection, schedule: Q07DX005 (ip), vehicle: suspension in saline): 85 % of control
T/C (endpoint: median tumor weight (est.), dose: 100.0 mg/kg/injection, schedule: Q07DX005 (ip), vehicle: saline): 84 % of control
T/C (endpoint: median tumor weight (est.), dose: 100.0 mg/kg/injection, schedule: Q07DX005 (ip), vehicle: suspension in saline): 107 % of control
T/C (endpoint: median tumor weight (est.), dose: 200.0 mg/kg/injection, schedule: Q07DX005 (ip), vehicle: saline): 42 % of control
T/C (endpoint: median tumor weight (est.), dose: 200.0 mg/kg/injection, schedule: Q07DX005 (ip), vehicle: suspension in saline): 53 % of control

Nc1n[n+](-c2ccccc2)no1
T/C (endpoint: median tumor weight (est.), dose: 3.12 mg/kg/injection, schedule: Q07DX005 (ip), vehicle: water): 82 % of control
T/C (endpoint: median tumor weight (est.), dose: 50.0 mg/kg/injection, schedule: Q07DX005 (ip), vehicle: water): 10 % of control and 34 % of control
T/C (endpoint: median tumor weight change, dose: 16.0 mg/kg/injection, schedule: Q01DX001 (ip), vehicle: water): 39 % of control
T/C (endpoint: median tumor weight change, dose: 31.0 mg/kg/injection, schedule: Q01DX001 (ip), vehicle: water): 70 % of control
T/C (endpoint: median tumor weight change, dose: 62.0 mg/kg/injection, schedule: Q01DX001 (ip), vehicle: water): 35 % of control

NC(N)=NOCC[C@@H](N)C(=O)O
T/C (endpoint: median tumor weight change, dose: 250.0 mg/kg/injection, schedule: Q01DX001 (ip), vehicle: saline): 83 % of control
T/C (endpoint: median tumor weight change, dose: 500.0 mg/kg/injection, schedule: Q01DX001 (ip), vehicle: saline): 72 % of control
T/C (endpoint: median tumor weight change, dose: 1000.0 mg/kg/injection, schedule: Q01DX001 (ip), vehicle: saline): 75 % of control

CN1c2c(nc(N)[nH]c2=O)NCC1CCNc1ccc(C(=O)NC(CCC(=O)O)C(=O)O)cc1 (stereo not drawn)
T/C (endpoint: mean tumor weight, dose: 25.0 mg/kg/injection, schedule: Q07DX008 (ip), vehicle: sodium bicarbonate): 119 % of control
T/C (endpoint: mean tumor weight, dose: 50.0 mg/kg/injection, schedule: Q07DX008 (ip), vehicle: sodium bicarbonate): 77 % of control
T/C (endpoint: mean tumor weight, dose: 100.0 mg/kg/injection, schedule: Q07DX008 (ip), vehicle: sodium bicarbonate): 72 % of control
T/C [4]: 103 % of control
T/C [5]: 95 % of control
T/C (endpoint: median tumor weight (est.), dose: 800.0 mg/kg/injection, schedule: Q07DX005 (ip), vehicle: saline): 98 % of control

N/C(=N\OC(=O)Nc1ccc(CSc2ccc(Cl)cc2)o1)c1ccccn1
T/C (endpoint: median tumor weight change, dose: 62.0 mg/kg/injection, schedule: Q01DX001 (ip), vehicle: Klucel (hydroxypropylcellulose) (HPC)): 64 % of control
T/C [2]: 99 % of control
T/C [3]: 80 % of control
